Numbers after ± are expanded uncertainties.
Details: Liquid; for mass density: 101.33 kPa

Structure (SMILES)	mass density (298.15 K) [kg/m3]	vapor or sublimation pressure (298.15 K) [kPa]	mass density (313.15 K) [kg/m3]	vapor or sublimation pressure (313.15 K) [kPa]	mass density (328.15 K) [kg/m3]	vapor or sublimation pressure (328.15 K) [kPa]
C1COCO1 [1,3-dioxolane]	1058.62 ± 0.85	13.54 ± 0.18	1039.88 ± 0.76	26.83 ± 0.29	1020.86 ± 0.67	49.01 ± 0.47
C1COCCO1 [1,4-dioxane]	1027.87 ± 0.71	4.9 ± 0.12	1010.69 ± 0.63	10.17 ± 0.16	993.75 ± 0.6	19.54 ± 0.23
CCCCCCl [1-chloropentane]	877 ± 1	4.055 ± 0.11	861.52 ± 1.1	8.45 ± 0.14	846.33 ± 1.1	16.4 ± 0.21
C1CCOC1 [tetrahydrofuran]	881.95 ± 0.45	21.61 ± 0.25	865.36 ± 0.49	40.62 ± 0.4	848.68 ± 0.52	70.61 ± 0.63
C1CCOCC1 [tetrahydropyran]	878.81 ± 1	9.56 ± 0.15	863.67 ± 1.1	18.66 ± 0.23	848.29 ± 1.1	33.95 ± 0.35
